The text below walks through data of patent publication US10869922B2 (priority 2016, dated 2020).

Experiment [1] concerns DC and CD8+T lymphocytes from OT-1 transgenic mouse. Description: DC/T lymphocyte co-culture experiment. Format: cell-based. From the text: Co-culture DC stimulated by high NaCl concentration and OVA antigen in vitro and CFSE-labeled CD8+T lymphocytes from OT-1 transgenic mouse for 2-3 days, observe the formation of CLUSTER under white light of the microscope, detect the proliferation of CFSE-labeled CD8+T lymphocytes by flow cytometry, and detect the secretion of IL2 in the collected culturesupernatant by ELISA.

For a further experiment, the system named is DC. Nature of the experiment: Immunofluorescence co-localization experiment. Format: cell-based, mouse. The conditions noted are these: DC treated by high NaCl concentration, FIG. 10d. The source says: Immunofluorescence co-localization experiment: the experimental group, ibid. Fix and permeabilize DC stimulated by high NaCl concentration and fluorescent labeled OVA in vitro, and stain with organelle fluorescent protein markers of proteasome and lysosome, and observe under the confocal microscopy.

Setting [2] is: DC treated by high NaCl concentration and OVA, co-culture 2-3 days, FIGS. 10a, b and c.

In the case of `[Cl-].[Na+]` [NaCl, sodium chloride], in experiment [1] (setting [2]), the “proliferation of specific CD8+T lymphocytes” value is listed as “induce” and the “secretion of IL2” value is given as “induce”. Besides, in experiment [1] (high NaCl concentration, FIG. 10), the “cross antigen presentation of DC” value is recorded as “significantly improve”. Moreover, in the experiment with DC, the “degradation route of OVA in DC” value was “mostly degraded by proteasome rather than lysosome”.
